Data taken from US20140051576A1, “ACTIVE COMPOUND COMBINATIONS COMPRISING A (THIO)CARBOXAMIDE DERIVATIVE AND AN INSECTICIDAL OR ACARICIDAL OR NEMATICIDAL ACTIVE COMPOUND” (priority 2011, published 2014).
Read-outs that look alike come from different tables or passages of the source.

How the values were obtained:
[1] = tested on: Phaedon cochleariae; experiment: Phaedon cochleariae Larvae - Test (PHAECO spray application); assay type: in vivo
From the text: Phaedon cochleariae—Test; (PHAECO Spray Application)
Solvent: 78 parts by weight of acetone • 1.5 parts by weight of N,N-dimethylformamide Emulsifier: 0.5 parts by weight of alkylarylpolyglycolether
Once dry, the leaf discs are infested with mustard beetle larvae (Phaedon cochleariae).

[2] = tested on: Myzus persicae; experiment: Myzus persicae - Test (MYZUPE spray application); assay type: in vivo
From the text: Myzus persicae—Test; (MYZUPE Spray Application)
Chinese cabbage (Brassica pekinesis) leaf—disks infected with all instars of the green peach aphid (Myzus persicae), are sprayed with a preparation of the active ingredient at the desired concentration.
100% means that all aphids have been killed; 0% means that none of the aphids have been killed.

[3] = tested on: Tetranychus urticae; experiment: Tetranychus urticae - Test; OP-resistant (TETRUR spray application); assay type: in vivo; details: for mortality at 20 g/ha / mortality at 4 g/ha / mortality at 100 g/ha: Tetranychus urticae; for Mortality in % after 6 days obs.: single active ingredient
From the text: Tetranychus urticae—Test; OP-Resistant (TETRUR Spray Application)
French beans (Phaseolus vulgaris) which are heavily infested with all stages of the two spotted spidermite (Tetranychus urticae), are sprayed with a preparation of the active ingredient at the desired concentration.

[4] = tested on: Spodoptera frugiperda; experiment: whole plant or invertebrate
Method: Spodoptera frugiperda—Test (SPODFR Spray Application)
Solvent: 78.0 parts by weight acetone • 1.5 parts by weight N,N-dimethylformamide Emulsifier: 0.5 parts by weight alkylarylpolyglycolether
Maize (Zea mais) leaf sections are sprayed with a preparation of the active ingredient of the desired concentration. Once dry, the leaf sections are infested with larvae of the fall armyworm (Spodoptera frugiperda).
After the specified period of time, the mortality in % is determined. 100% means that all caterpillars have been killed and 0% means that none of the caterpillars have been killed.

[5] = Phaedon cochleariae, 144 h, read-out: Mortality in % after 6 days obs.
[6] = Myzus persicae, 144 h, read-out: Mortality in % after 6 days obs.
[7] = 48 h, read-out: Mortality in % after 2 days obs.
[8] = 144 h, read-out: Mortality in % after 6 days obs.
[9] = Spodoptera frugiperda, 144 h, read-out: Mortality in % after 6 days obs.
[10] = Myzus persicae, 24 h, read-out: Mortality in % after 1 day obs.
[11] = Phaedon cochleariae, 48 h, read-out: Mortality in % after 2 days obs.

## CCOP(=S)(OCC)Oc1nc(Cl)c(Cl)cc1Cl [B-1B.10, Chlorpyrifos]
[1]; [5]
  mortality at 20 g/ha: 0%
[2]; [6]
  mortality at 0.8 g/ha: 0%
[3]; [7]
  mortality at 20 g/ha: 0%
[3]; [8]
  mortality at 4 g/ha: 0%
[4]; [9]
  mortality at 4 g/ha: 67%

## CC1(C)C(C=C(Cl)Cl)C1C(=O)OC(C#N)c1ccc(F)c(Oc2ccccc2)c1 (stereo not drawn) [B-3A.11, β-Cyfluthrin]
[1]; 0.16 g/ha
  Mortality in % after 6 days obs.: 50%
[1]; 0.8 g/ha
  Mortality in % after 6 days obs.: 67%
[2]; 0.16 g/ha
  Mortality in % after 6 days obs.: 0%
[2]; 0.8 g/ha
  Mortality in % after 1 day obs.: 70%
  Mortality in % after 6 days obs.: 70%
[3]; 4 g/ha
  Mortality in % after 6 days obs.: 0%
[4]; 0.16 g/ha
  Mortality in % after 6 days obs.: 50%

## CC1(C)[C@H](C(=O)O[C@H](C#N)c2cccc(Oc3ccccc3)c2)[C@@H]1C=C(Br)Br [B-3A.21, Deltamethrin]
[1]; [5]
  mortality at 0.16 g/ha: 0%
  mortality at 0.8 g/ha: 33%
[2]; [10]
  mortality at 0.8 g/ha: 80%
[2]; [6]
  mortality at 0.16 g/ha: 70%
[3]; [8]
  mortality at 4 g/ha: 20%
[4]; Spodoptera frugiperda, 48 h, read-out: Mortality in % after 2 days obs.
  mortality at 0.16 g/ha: 0%
[4]; [9]
  mortality at 0.032 g/ha: 0%
  mortality at 0.8 g/ha: 33%

## CN/C(=N\[N+](=O)[O-])NCc1cnc(Cl)s1 [B-4A.2, Clothianidin]
[1]; [11]
  mortality at 20 g/ha: 83%
[1]; [5]
  mortality at 4 g/ha: 0%
[2]; [10]
  mortality at 4 g/ha: 0%
[3]; [7]
  mortality at 20 g/ha: 0%
[3]; [8]
  mortality at 4 g/ha: 0%
  mortality at 20 g/ha: 0%
[4]; [9]
  mortality at 20 g/ha: 0%

## CNC(=O)c1cc(C#N)cc(C)c1NC(=O)c1cc(Br)nn1-c1ncccc1Cl [B-26.2, Cyantraniliprole (Cyazypyr)]
[1]; 0.8 g/ha
  Mortality in % after 2 days obs.: 0%
  Mortality in % after 6 days obs.: 67%
[2]; 0.8 g/ha
  Mortality in % after 1 day obs.: 0%
  Mortality in % after 6 days obs.: 70%
[3]; 20 g/ha
  Mortality in % after 6 days obs.: 0%
[4]; 0.16 g/ha
  Mortality in % after 6 days obs.: 0%

## O=C1C=C(N(Cc2ccc(Cl)nc2)CC(F)F)CO1 [B-27.16, 4-{[(6-chloropyridin-3-yl)methyl](2,2-difluoroethyl)-amino}furan-2(5H)-one]
[1]; [11]
  mortality at 100 g/ha: 50%
[1]; [5]
  mortality at 20 g/ha: 0%
[2]; [10]
  mortality at 4 g/ha: 0%
  mortality at 100 g/ha: 80%
[3]; [7]
  mortality at 100 g/ha: 0%
[3]; [8]
  mortality at 100 g/ha: 0%
[4]; [9]
  mortality at 20 g/ha: 0%

## Acetamiprid [B-4A.1]
[1]; 20 g/ha
  Mortality in % after 2 days obs.: 50%
[1]; 100 g/ha
  Mortality in % after 6 days obs.: 0%
[2]; 0.8 g/ha
  Mortality in % after 1 day obs.: 70%
[3]; 20 g/ha
  Mortality in % after 2 days obs.: 0%
[4]; 20 g/ha
  Mortality in % after 6 days obs.: 0%

## Fipronil [B-2B.2]
[1]; 0.16 g/ha
  Mortality in % after 6 days obs.: 50%
[1]; 0.8 g/ha
  Mortality in % after 2 days obs.: 33%
[1]; 4 g/ha
  Mortality in % after 2 days obs.: 67%
[2]; 20 g/ha
  Mortality in % after 6 days obs.: 0%
[3]; 100 g/ha
  Mortality in % after 6 days obs.: 0%
[4]; 100 g/ha
  Mortality in % after 2 days obs.: 67%

## Transfluthrin [B-3A.46]
[1]; 4 g/ha
  Mortality in % after 6 days obs.: 0%
[1]; 20 g/ha
  Mortality in % after 6 days obs.: 0%
[1]; 100 g/ha
  Mortality in % after 2 days obs.: 67%
[2]; 20 g/ha
  Mortality in % after 1 day obs.: 0%
  Mortality in % after 6 days obs.: 0%
[2]; 100 g/ha
  Mortality in % after 1 day obs.: 80%
[3]; 100 g/ha
  Mortality in % after 6 days obs.: 0%
[4]; 0.8 g/ha
  Mortality in % after 6 days obs.: 33%
[4]; 4 g/ha
  Mortality in % after 6 days obs.: 33%
[4]; 20 g/ha
  Mortality in % after 6 days obs.: 50%
